Laboratory results from ChEMBL document CHEMBL1201862, “PubChem BioAssay data set” (2004).
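Each compound was tested at five concentrations against cells in 96-well plates for 48 hours. GI50 is the concentration that inhibits growth by half.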 Calls of active or inactive are those of the source. No stated cut-off is given here; in the data, active = GI50 up to about 1.1 µM and inactive = higher.

Tests used:
Test in all cases: inhibition of tumour cell growth, NCI panel, 48 h
HCC 2998 = test system: HCC 2998
HOP-92 = test system: HOP-92
SW-620 = test system: SW-620
SK-MEL-5 = test system: SK-MEL-5
U-251 = test system: U-251
COLO 205 = test system: COLO 205
CCRF-CEM = test system: CCRF-CEM
TK-10 = test system: TK-10
HCT-116 = test system: HCT-116
LOX IMVI = test system: LOX IMVI
OVCAR-4 = test system: OVCAR-4
OVCAR-5 = test system: OVCAR-5
UO-31 = test system: UO-31
SK-MEL-28 = test system: SK-MEL-28
ACHN = test system: ACHN
MOLT-4 = test system: MOLT-4
A549 = test system: A549
IGROV-1 = test system: IGROV-1
SK-OV-3 = test system: SK-OV-3
HL-60 = test system: HL-60

| Compound | GI50 (HCC 2998) | GI50 (HOP-92) | GI50 (SW-620) | GI50 (SK-MEL-5) | GI50 (U-251) | GI50 (COLO 205) | GI50 (CCRF-CEM) | GI50 (TK-10) | GI50 (HCT-116) | GI50 (LOX IMVI) | GI50 (OVCAR-4) | GI50 (OVCAR-5) | GI50 (UO-31) | GI50 (SK-MEL-28) | GI50 (ACHN) | GI50 (MOLT-4) | GI50 (A549) | GI50 (IGROV-1) | GI50 (SK-OV-3) | GI50 (HL-60) |
| --- | --- | --- | --- | --- | --- | --- | --- | --- | --- | --- | --- | --- | --- | --- | --- | --- | --- | --- | --- | --- |
| CCN1C(=O)c2cc(OC)c(OC)cc2C(=O)C12OC(=O)c1cc3c(cc12)OCO3 (stereo not given) | 54.7 µM (inactive) | 55.3 µM (inactive) | > 100 µM (inactive) | 85.9 µM (inactive) | 43 µM (inactive) | > 100 µM (inactive) | 35.6 µM (inactive) | 75.7 µM (inactive) | 33.1 µM (inactive) | 40.7 µM (inactive) | 69.8 µM (inactive) | > 100 µM (inactive) | > 100 µM (inactive) | > 100 µM (inactive) | > 100 µM (inactive) | > 100 µM (inactive) | 36.9 µM (inactive) | 97.9 µM (inactive) | – | – |
| CCCCCCCCCCCC1=NCCN1 | 19.5 µM (inactive) | 94 µM (inactive) | 34.7 µM (inactive) | 38.6 µM (inactive) | 49.9 µM (inactive) | 19.4 µM (inactive) | 22.9 µM (inactive) | > 100 µM (inactive) | 56.6 µM (inactive) | 3.75 µM (inactive) | 14.8 µM (inactive) | – | 32.1 µM (inactive) | > 100 µM (inactive) | > 100 µM (inactive) | 17.9 µM (inactive) | 90.6 µM (inactive) | – | > 100 µM (inactive) | – |
| COC[C@@H](Cc1ccc(OC)c(OC)c1)[C@@H](COC)Cc1ccc(OC)c(OC)c1 | > 100 µM (inactive) | 57.9 µM (inactive) | > 100 µM (inactive) | 51.9 µM (inactive) | > 100 µM (inactive) | > 100 µM (inactive) | 56.5 µM (inactive) | > 100 µM (inactive) | 94 µM (inactive) | > 100 µM (inactive) | – | > 100 µM (inactive) | > 100 µM (inactive) | > 100 µM (inactive) | > 100 µM (inactive) | 60.3 µM (inactive) | > 100 µM (inactive) | > 100 µM (inactive) | > 100 µM (inactive) | > 100 µM (inactive) |
| C=COCCCOc1ccccc1 | > 100 µM (inactive) | – | > 100 µM (inactive) | > 100 µM (inactive) | > 100 µM (inactive) | > 100 µM (inactive) | > 100 µM (inactive) | > 100 µM (inactive) | > 100 µM (inactive) | > 100 µM (inactive) | > 100 µM (inactive) | > 100 µM (inactive) | > 100 µM (inactive) | > 100 µM (inactive) | > 100 µM (inactive) | > 100 µM (inactive) | > 100 µM (inactive) | 0.145 µM (active) | – | > 100 µM (inactive) |
| CCOc1c(/N=N/c2ccccc2Cl)c(-c2ccccc2)nn1C(=S)S | – | 54 µM (inactive) | 46.6 µM (inactive) | 21.2 µM (inactive) | 51.1 µM (inactive) | 21.4 µM (inactive) | – | 77.6 µM (inactive) | 28 µM (inactive) | 19.9 µM (inactive) | 48.4 µM (inactive) | 61 µM (inactive) | 35.6 µM (inactive) | > 100 µM (inactive) | 48.1 µM (inactive) | 23.9 µM (inactive) | 33.2 µM (inactive) | 42.6 µM (inactive) | > 100 µM (inactive) | 33.6 µM (inactive) |
| COc1cccc(C2C(C(=O)O)=C(CO)Oc3cc4c(cc32)OCO4)c1 (stereo not given) | – | > 100 µM (inactive) | > 100 µM (inactive) | > 100 µM (inactive) | > 100 µM (inactive) | > 100 µM (inactive) | > 100 µM (inactive) | > 100 µM (inactive) | – | > 100 µM (inactive) | – | – | > 100 µM (inactive) | > 100 µM (inactive) | > 100 µM (inactive) | > 100 µM (inactive) | – | > 100 µM (inactive) | > 100 µM (inactive) | > 100 µM (inactive) |
| C/C(=N/NS(=O)(=O)c1ccc([N+](=O)[O-])cc1)c1cccc[n+]1[O-] | > 100 µM (inactive) | > 100 µM (inactive) | > 100 µM (inactive) | > 100 µM (inactive) | > 100 µM (inactive) | – | > 100 µM (inactive) | > 100 µM (inactive) | > 100 µM (inactive) | – | > 100 µM (inactive) | > 100 µM (inactive) | > 100 µM (inactive) | > 100 µM (inactive) | > 100 µM (inactive) | > 100 µM (inactive) | > 100 µM (inactive) | > 100 µM (inactive) | > 100 µM (inactive) | > 100 µM (inactive) |
| Brc1cccc(Nc2ncnc3sc4c(c23)CCC(Nc2cccc(Br)c2)C4)c1 (stereo not given) | > 100 µM (inactive) | 26.2 µM (inactive) | > 100 µM (inactive) | > 100 µM (inactive) | > 100 µM (inactive) | > 100 µM (inactive) | > 100 µM (inactive) | > 100 µM (inactive) | > 100 µM (inactive) | > 100 µM (inactive) | > 100 µM (inactive) | > 100 µM (inactive) | > 100 µM (inactive) | > 100 µM (inactive) | > 100 µM (inactive) | > 100 µM (inactive) | > 100 µM (inactive) | 71.3 µM (inactive) | > 100 µM (inactive) | – |
| O=C(NNC(=O)c1nsc2ccccc12)c1ccc(Cl)cc1 | 16.9 µM (inactive) | 17.1 µM (inactive) | 35.4 µM (inactive) | 23.8 µM (inactive) | 16.7 µM (inactive) | 23.7 µM (inactive) | 19 µM (inactive) | 26.3 µM (inactive) | 17.5 µM (inactive) | 18.1 µM (inactive) | > 10 µM (inactive) | 20.4 µM (inactive) | 18.9 µM (inactive) | 16.9 µM (inactive) | > 100 µM (inactive) | 20.4 µM (inactive) | 21.7 µM (inactive) | 34.5 µM (inactive) | – | 23.7 µM (inactive) |
| CC(=O)/N=C1/N(/C=C2\C(=O)Oc3ccccc3C2=O)C(=O)/C(=C/c2ccc(NC(C)=O)cc2)N1C | > 100 µM (inactive) | – | > 100 µM (inactive) | > 100 µM (inactive) | > 100 µM (inactive) | > 100 µM (inactive) | > 100 µM (inactive) | – | > 100 µM (inactive) | > 100 µM (inactive) | > 100 µM (inactive) | > 100 µM (inactive) | – | > 100 µM (inactive) | > 100 µM (inactive) | > 100 µM (inactive) | > 100 µM (inactive) | > 100 µM (inactive) | > 100 µM (inactive) | > 100 µM (inactive) |
| Cc1ccc(S(=O)(=O)N2CCCSCC2)cc1 | > 100 µM (inactive) | > 100 µM (inactive) | > 100 µM (inactive) | > 100 µM (inactive) | > 100 µM (inactive) | > 100 µM (inactive) | > 100 µM (inactive) | > 100 µM (inactive) | > 100 µM (inactive) | > 100 µM (inactive) | > 100 µM (inactive) | – | 35.2 µM (inactive) | > 100 µM (inactive) | > 100 µM (inactive) | > 100 µM (inactive) | > 100 µM (inactive) | – | > 100 µM (inactive) | – |
| Cc1c(N(Cc2ccccc2)Cc2ccccc2)nc(S(C)(=O)=O)nc1S(C)(=O)=O | 1.79 µM (inactive) | 3.56 µM (inactive) | 1.93 µM (inactive) | 12 µM (inactive) | 2.53 µM (inactive) | – | 2.2 µM (inactive) | 4.2 µM (inactive) | 1.66 µM (inactive) | 1.84 µM (inactive) | – | 7.4 µM (inactive) | 12.1 µM (inactive) | – | 4.68 µM (inactive) | 2.11 µM (inactive) | 15.3 µM (inactive) | 1.74 µM (inactive) | 14.4 µM (inactive) | 2.09 µM (inactive) |
| COc1ccc(CC2CCc3nc(N)nc(N)c3C2)cc1OC (stereo not given) | 0.687 µM (active) | 36 µM (inactive) | 6.03 µM (inactive) | 0.4 µM (active) | 38.6 µM (inactive) | 2.94 µM (inactive) | – | 7.6 µM (inactive) | 0.0349 µM (active) | 0.065 µM (active) | > 43.3 µM (inactive) | 1.51 µM (inactive) | 13.8 µM (inactive) | 36.4 µM (inactive) | 0.16 µM (active) | 0.522 µM (active) | 0.0481 µM (active) | 0.11 µM (active) | – | 14.8 µM (inactive) |
| CC(C)(C)C(=O)OCC1OC(N=[N+]=[N-])C(OC(=O)C(C)(C)C)C(OC(=O)C(C)(C)C)C1OC(=O)C(C)(C)C (stereo not given) | > 100 µM (inactive) | > 100 µM (inactive) | > 100 µM (inactive) | > 100 µM (inactive) | > 100 µM (inactive) | > 100 µM (inactive) | > 100 µM (inactive) | > 100 µM (inactive) | > 100 µM (inactive) | – | > 100 µM (inactive) | > 100 µM (inactive) | > 100 µM (inactive) | > 100 µM (inactive) | > 100 µM (inactive) | > 100 µM (inactive) | > 100 µM (inactive) | > 100 µM (inactive) | > 100 µM (inactive) | 58.6 µM (inactive) |
| CCc1c(-c2ccccc2)[nH]c2ccccc2c1=O | 80.9 µM (inactive) | – | – | 27.4 µM (inactive) | > 100 µM (inactive) | – | 72.4 µM (inactive) | 44.8 µM (inactive) | 41.3 µM (inactive) | 48.1 µM (inactive) | 33.2 µM (inactive) | > 100 µM (inactive) | 0.0412 µM (active) | 67.9 µM (inactive) | 36.7 µM (inactive) | 95.7 µM (inactive) | 13.4 µM (inactive) | – | 28.1 µM (inactive) | > 100 µM (inactive) |
